Reference: the CheMixHub ionic liquid set

Assay: xn = mol fraction of the nth substance listed

CCCC[N+]1(C)CCCC1.O=S(=O)([N-]S(=O)(=O)C(F)(F)F)C(F)(F)F + CC1COC(=O)O1
Conditions	electrical conductivity [S/m]	viscosity [mPa·s]
253.15 K, 101 kPa, x2 = 0.11	0.026	–
253.15 K, 101 kPa, x2 = 0.21	0.04	–
253.15 K, 101 kPa, x2 = 0.47	0.108	–
253.15 K, 101 kPa, x2 = 0.63	0.183	–
253.15 K, 101 kPa, x2 = 0.79	0.27	–
253.15 K, 101 kPa, x2 = 0.89	0.283	–
258.15 K, 101 kPa, x2 = 0.16	0.052	–
258.15 K, 101 kPa, x2 = 0.26	0.073	–
258.15 K, 101 kPa, x2 = 0.58	0.199	–
263.15 K, 101 kPa, x2 = 0.05	0.053	–
263.15 K, 101 kPa, x2 = 0.37	0.14	–
263.15 K, 101 kPa, x2 = 0.53	0.225	–
268.15 K, 101 kPa, x2 = 0.68	0.418	–
273.15 K, 101 kPa, x2 = 0	0.109	–
273.15 K, 101 kPa, x2 = 0.26	0.195	–
273.15 K, 101 kPa, x2 = 0.42	0.281	–
273.15 K, 101 kPa, x2 = 0.74	0.535	–
278.15 K, 101 kPa, x2 = 0.26	0.253	–
278.15 K, 101 kPa, x2 = 0.95	0.504	–
283.15 K, 101 kPa, x2 = 0.05	0.212	–
283.15 K, 101 kPa, x2 = 0.16	0.257	–
283.15 K, 101 kPa, x2 = 0.37	0.382	–
283.15 K, 101 kPa, x2 = 0.58	0.557	–
283.15 K, 101 kPa, x2 = 0.68	0.654	–
283.15 K, 101 kPa, x2 = 0.89	0.698	–
283.15 K, 101 kPa, x2 = 0.95	0.566	–
283.15 K, 101 kPa, x2 = 0.97	0.458	–
288.15 K, 101 kPa, x2 = 0.26	0.384	–
288.15 K, 101 kPa, x2 = 0.47	0.547	–
288.15 K, 101 kPa, x2 = 0.74	0.787	–
288.15 K, 101 kPa, x2 = 0.79	0.817	–
293.15 K, 100 kPa, x2 = 0.8	0.93	7.8
293.15 K, 101 kPa, x2 = 0	0.303	86.1
293.15 K, 101 kPa, x2 = 0.53	0.689	21.23
293.15 K, 101 kPa, x2 = 0.79	0.91	7.77
298.15 K, 101 kPa, x2 = 0.32	0.581	28.28
298.15 K, 101 kPa, x2 = 0.37	–	25.45
298.15 K, 101 kPa, x2 = 0.42	0.678	22.81
298.15 K, 101 kPa, x2 = 0.63	0.892	12.82
303.15 K, 101 kPa, x2 = 0.21	0.574	29.14
303.15 K, 101 kPa, x2 = 0.42	0.771	19
303.15 K, 101 kPa, x2 = 0.63	1.001	10.87
303.15 K, 101 kPa, x2 = 0.74	1.091	7.36
303.15 K, 101 kPa, x2 = 0.84	1.099	4.68
308.15 K, 101 kPa, x2 = 0.37	0.816	17.76
313.15 K, 101 kPa, x2 = 0.21	0.75	20.27
313.15 K, 101 kPa, x2 = 0.32	0.858	16.62
313.15 K, 101 kPa, x2 = 0.47	1.036	12.28
313.15 K, 101 kPa, x2 = 0.79	1.3	4.64
313.15 K, 101 kPa, x2 = 0.84	1.271	3.75
313.15 K, 101 kPa, x2 = 0.97	0.721	–
318.15 K, 101 kPa, x2 = 0	–	29.72
318.15 K, 101 kPa, x2 = 0.05	–	25.14
318.15 K, 101 kPa, x2 = 0.47	–	10.64
318.15 K, 101 kPa, x2 = 0.89	–	2.77

100 kPa, frequency 0.003 MHz
Conditions	electrical conductivity [S/m]
297.1 K, x1 = 0.8	0.396
299.8 K, x1 = 0.4	0.804
299.9 K, x1 = 0.8	0.413
310.9 K, x1 = 0.8	0.527
313.5 K, x1 = 0.4	0.931
313.7 K, x1 = 0.2	1.15
313.7 K, x1 = 0.8	0.552
316.2 K, x1 = 0.2	1.17
319.3 K, x1 = 0.6	0.727
322.3 K, x1 = 0.9	0.559
327.6 K, x1 = 0.6	0.788
330.3 K, x1 = 0.2	1.26
330.6 K, x1 = 0.9	0.636
338.9 K, x1 = 0.2	1.31
338.9 K, x1 = 0.8	0.768
341.4 K, x1 = 0.8	0.788
341.6 K, x1 = 0.6	0.886
346.8 K, x1 = 0.4	1.18
349.7 K, x1 = 0.4	1.21

O=C1CCCO1 + C[NH+](C)C.O=S(=O)([N-]S(=O)(=O)C(F)(F)F)C(F)(F)F
Conditions	viscosity [mPa·s]
333.15 K, 101 kPa, x1 = 1	1.08

CCCC[N+]1(C)CCCC1.O=S(=O)([N-]S(=O)(=O)C(F)(F)F)C(F)(F)F + CO
101 kPa, frequency 0.001 MHz
Conditions	electrical conductivity [S/m]
293.15 K, x1 = 0.05	0.368
293.15 K, x1 = 0.26	1.77
293.15 K, x1 = 0.37	2.11
298.15 K, x1 = 0.26	1.93
303.15 K, x1 = 0.26	2.17
303.15 K, x1 = 0.42	2.61
308.15 K, x1 = 0.26	2.38
308.15 K, x1 = 0.47	2.85
308.15 K, x1 = 0.68	1.84
313.15 K, x1 = 0.32	2.79
313.15 K, x1 = 0.53	2.91
313.15 K, x1 = 0.68	2.08
313.15 K, x1 = 0.74	1.8
313.15 K, x1 = 0.84	1.29
313.15 K, x1 = 1	0.488
318.15 K, x1 = 0.21	2.4
318.15 K, x1 = 0.63	2.55
318.15 K, x1 = 0.68	2.27
318.15 K, x1 = 0.79	1.7
318.15 K, x1 = 0.84	1.43

101 kPa
Conditions	viscosity [mPa·s]
293.15 K, x1 = 0.05	1.02
293.15 K, x1 = 0.26	8.31
293.15 K, x1 = 0.37	12.95
298.15 K, x1 = 0.26	7.2
303.15 K, x1 = 0.26	6.29
303.15 K, x1 = 0.42	11.11
308.15 K, x1 = 0.26	5.53
308.15 K, x1 = 0.47	10.87
308.15 K, x1 = 0.68	16.54
313.15 K, x1 = 0.32	6.15
313.15 K, x1 = 0.53	10.55
313.15 K, x1 = 0.68	14.3
313.15 K, x1 = 0.74	16.1
313.15 K, x1 = 0.84	21.3
313.15 K, x1 = 1	35.7
318.15 K, x1 = 0.21	3.3
318.15 K, x1 = 0.63	11.22
318.15 K, x1 = 0.68	12.47
318.15 K, x1 = 0.79	15.95
318.15 K, x1 = 0.84	18.39
318.15 K, x1 = 0.95	25.2

[Cl-].[Cl-].[Co+2] + CCCCCCCC[N+](CCCCCCCC)(CCCCCCCC)CCCCCCCC.[Br-] + CCCCCCCC(=O)O
296.1 K, 101.3 kPa
Conditions	viscosity [mPa·s]
x2 = 0.2857, x1 = 0.1429	2615
x2 = 0.4, x1 = 0.2	5700
x2 = 0.4286, x1 = 0.1429	7600

CCOP(=O)([O-])OCC.CC[n+]1ccn(C)c1 + CC(C)O + O
100 kPa
Conditions	viscosity [mPa·s]
298.15 K, x2 = 0.299, x3 = 0.3	79
313.15 K, x2 = 0.199, x3 = 0.2008	90
323.15 K, x2 = 0.099, x3 = 0.0998	94
323.15 K, x2 = 0.15, x3 = 0.1498	76
